Source: patent US9181183B2, “Prostaglandin D synthase inhibitory piperidine compounds” (Taiho Pharmaceutical Co., Ltd., priority 2010, dated 2015)

These molecules were tested against human H-PGDS (Homo sapiens, UniProt O60760) (assay: Hematopoietic prostaglandin D synthase (H-PGDS) inhibiting action, [14C]PGH2 to PGD2 conversion, TLC radioassay). Conditions: compound 0.1 μM; inhibition rate relative to solvent control group; [14C] prostaglandin H2 10 μM, 25° C.
Type: biochemical
Procedure: The test was carried out according to the method of Urade, Y. et al. (J. Biol. Chem., 262, 3820-3825, (1987)). More specifically, a reaction mixture (49 μL) containing 100 mM Tris-HCl (pH 8.0), 1 mM reduced form glutathione, 0.1 mg/mL γ-globulin, human H-PGDS (q.s.), and a compound (0.1 μM) was preincubated at 25° C. for 5 minutes. A DMSO solution (final concentration: 1%) was added to the solvent control group. Subsequently, 1 μL of [^14C] prostaglandin H2 (final concentration: 10 μM) was added to start the reaction. One minute after the start of the reaction, 250 μL of a reaction stopper solution (diethylether/methanol/1M citric acid (30/4/1)) cooled with ice was added to stop the reaction. After the reaction was stopped, 50 μL of the upper layer portion (organic solvent phase) was applied to a TLC plate and developed at −20° C. for 45 minutes (developing solvent: diethylether/methanol/acetic acid (90/2/1)). After the TLC plate was dried and exposed to an imaging plate for 1 to 24 hours, the radioactivity corresponding to prostaglandin D2 (PGD2) was analyzed using an image analyzer (produced by Fujifilm Corporation). The area (%) occupied by the PGD2 band per lane and the inhibition rate (%) of each Example compound at 0.1 μM relative to the control group in each experiment were calculated.

Sequence of human H-PGDS (O60760 whole entry): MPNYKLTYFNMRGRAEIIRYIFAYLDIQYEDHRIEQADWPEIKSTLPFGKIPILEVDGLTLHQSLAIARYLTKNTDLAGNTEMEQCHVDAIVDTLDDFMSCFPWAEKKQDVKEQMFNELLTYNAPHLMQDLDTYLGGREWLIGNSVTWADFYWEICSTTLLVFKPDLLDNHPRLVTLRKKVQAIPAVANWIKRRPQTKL

Q: How did the “H-PGDS inh. (% at 0.1 μM)” value turn out when “N-(4-(2-(4-(pyridin-2-ylmethylene)piperidine-1-carboxamido)thiazol-5-yl)phenyl)morpholin-1-yl-carboxamide [Example 25]” was run?
A: The value was 56.4%.

Q: “N-(4-(4-(morpholin-1-yl-carbonyl)piperidin-1-yl)phenyl)-2-(4-(pyridin-2-ylmethylene)piperidine-1-carboxamido)thiazole-5-carboxamide [Example 15]” was tested. Which “H-PGDS inh. (% at 0.1 μM)” value did it give?
A: Its value is 68.6%.

Q: For “N-(4-(morpholin-1-yl-carbonyl)phenyl)-2-(4-(pyridin-2-ylmethylene)piperidine-1-carboxamido)thiazole-5-carboxamide [Example 19]”, which “H-PGDS inh. (% at 0.1 μM)” value is on record?
A: The value was 55.1%.

Q: With “N-(5-(4-(cyclopropylcarboxamido)phenyl)thiazol-2-yl)-4-(pyridin-2-ylmethylene)piperidine-1-carboxamide [Example 21]” as the molecule, how does the “H-PGDS inh. (% at 0.1 μM)” value read?
A: The value was 58.7%.

Q: With “N-(5-(morpholin-1-yl-carbonyl)thiazol-2-yl)-4-(pyridin-2-ylmethylene)piperidine-1-carboxamide [Example 13]” as the molecule, how does the “H-PGDS inh. (% at 0.1 μM)” value read?
A: The value was 48.3%.

Q: “N-(6-(1H-1,2,3-triazol-1-ylmethyl)acetamide)benzo[d]thiazol-2-yl)-4-(pyridin-2-ylmethylene)-piperidine-1-carboxamide [Example 12]” was tested. Which “H-PGDS inh. (% at 0.1 μM)” value did it give?
A: Its value is 52.5%.

Q: For “N-(6-(4-morpholin-1-yl-carbonylphenyl)-benzo[d]thiazol-2-yl)-4-(pyridin-2-ylmethylene)-piperidine-1-carboxamide [Example 2]”, which “H-PGDS inh. (% at 0.1 μM)” value is on record?
A: Its value is 64.4%.

Q: Which “H-PGDS inh. (% at 0.1 μM)” value does the source give for “Phenyl 4-(4-(2,5-difluorobenzylidene)piperidine-1-carboxamido) piperidine-1-carboxylate [Example 39]” here?
A: Its value is 62.9%.

Same assay, conditions: compound 0.1 μM; inhibition rate relative to solvent control group; [14C] prostaglandin H2 10 μM, 25° C.; read-out: H-PGDS inh. (% at 0.1 μM)

Q: With `O=C(Nc1ccc(OCc2ccccc2)cc1)N1CCC(=Cc2cc(F)ccc2F)CC1` [Example 69, N-(4-(benzyloxy)phenyl)-4-(2,5-difluorobenzylidene)piperidine-1-carboxamide] as the molecule, how does the inhibition at 0.1 µM read?
A: Its inhibition at 0.1 µM is 51.3%.

Q: With `O=C(Nc1ccc(Oc2ncccn2)cc1)N1CCC(=Cc2cc(F)ccc2F)CC1` [Example 70, 4-(2,5-difluorobenzylidene)-N-(4-(pyrimidin-2-yloxy)phenyl)piperidine-1-carboxamide] as the molecule, how does the inhibition at 0.1 µM read?
A: The inhibition at 0.1 µM was 84.2%.

Q: How did the inhibition at 0.1 µM turn out when `O=C(Nc1ccc(Nc2ccccc2)cc1)N1CCC(=Cc2ccccn2)CC1` [Example 71, N-(4-(phenylamino)phenyl)-4-(pyridin-2-ylmethylene)piperidine-1-carboxamide] was run?
A: Its inhibition at 0.1 µM is 62.9%.

Q: How did the inhibition at 0.1 µM turn out when `O=C(Nc1ccc(Nc2ccccc2)cc1)N1CCC(=Cc2cc(F)ccc2F)CC1` [Example 72, 4-(2,5-difluorobenzylidene)-N-(4-(phenylamino)phenyl)piperidine-1-carboxamide] was run?
A: The inhibition at 0.1 µM was 68.7%.

Q: How did the inhibition at 0.1 µM turn out when `O=C(Nc1ccccc1)Nc1ccc(NC(=O)N2CCC(=Cc3cc(F)ccc3F)CC2)cc1` [Example 73, 4-(2,5-difluorobenzylidene)-N-(4-(3-phenylureido)phenyl)piperidine-1-carboxamide] was run?
A: The inhibition at 0.1 µM was 71%.

Q: `O=C(Nc1ccc(NC(=O)N2CCC(=Cc3cc(F)ccc3F)CC2)cc1)c1ccccn1` [Example 74, N-(4-(4-(2,5-difluorobenzylidene)piperidine-1-carboxamido)phenyl)picolinamide] was tested. Which inhibition at 0.1 µM did it give?
A: Its inhibition at 0.1 µM is 70.9%.

Q: `O=C(Nc1ccc(NC(=O)N2CCC(=Cc3cc(F)ccc3F)CC2)cc1)c1cscn1` [Example 75, N-(4-(4-(2,5-difluorobenzylidene)piperidine-1-carboxamido)phenyl)thiazole-4-carboxamide] was tested. Which inhibition at 0.1 µM did it give?
A: The inhibition at 0.1 µM was 71.2%.

Q: With `O=C(Nc1ccc(NC(=O)N2CCC(=Cc3cc(F)ccc3F)CC2)cc1)c1ccsc1` [Example 76, 4-(2,5-difluorobenzylidene)-N-(4-(thiophene-3-carboxamido)phenyl)piperidine-1-carboxamide] as the molecule, how does the inhibition at 0.1 µM read?
A: Its inhibition at 0.1 µM is 79.4%.

Q: Which inhibition at 0.1 µM does the source give for `CC(C)C(=O)Nc1ccc(NC(=O)N2CCC(=Cc3cc(F)ccc3F)CC2)cc1` [Example 77, 4-(2,5-difluorobenzylidene)-N-(4-isobutyramidophenyl)piperidine-1-carboxamide] here?
A: The inhibition at 0.1 µM was 68.1%.

Q: For `COC(=O)c1ccccc1CNC(=O)N1CCC(=Cc2cc(F)ccc2F)CC1` [Example 78, Methyl 2-((4-(2,5-difluorobenzylidene)piperidine-1-carboxamido)methyl)benzoate], which inhibition at 0.1 µM is on record?
A: Its inhibition at 0.1 µM is 48.3%.

Q: With `O=C(Nc1ccc(NC(=O)N2CCC(=Cc3cc(F)ccc3F)CC2)cn1)c1ccccn1` [Example 79, N-(5-(4-(2,5-difluorobenzylidene)piperidine-1-carboxamido)pyridin-2-yl)picolinamide] as the molecule, how does the inhibition at 0.1 µM read?
A: Its inhibition at 0.1 µM is 56.8%.

Q: For `O=C(Nc1ccc(NC(=O)N2CCC(=Cc3cc(F)ccc3F)CC2)cn1)c1cscn1` [Example 80, N-(5-(4-(2,5-difluorobenzylidene)piperidine-1-carboxamido)pyridin-2-yl)thiazole-4-carboxamide], which inhibition at 0.1 µM is on record?
A: The inhibition at 0.1 µM was 66%.

Q: For `O=C(Nc1ncc(Cn2cncn2)s1)N1CCC(=Cc2cc(F)ccc2F)CC1` [Example 81, N-(5-((1H-1,2,4-triazol-1-yl)methyl)thiazol-2-yl)-4-(2,5-difluorobenzylidene)piperidine-1-carboxamide], which inhibition at 0.1 µM is on record?
A: Its inhibition at 0.1 µM is 72.8%.

Q: `Cc1nccn1Cc1cnc(NC(=O)N2CCC(=Cc3cc(F)ccc3F)CC2)s1` [Example 82, 4-(2,5-difluorobenzylidene)-N-(5-((2-methyl-1H-imidazol-1-yl)methyl)thiazol-2-yl)piperidine-1-carboxamide] was tested. Which inhibition at 0.1 µM did it give?
A: Its inhibition at 0.1 µM is 82.7%.

Q: With `Cc1nccn1Cc1cnc(NC(=O)N2CCC(=Cc3ccccn3)CC2)s1` [Example 83, N-(5-((2-methyl-1H-imidazol-1-yl)methyl)thiazol-2-yl)-4-(pyridin-2-ylmethylene)piperidine-1-carboxamide] as the molecule, how does the inhibition at 0.1 µM read?
A: Its inhibition at 0.1 µM is 41.6%.

Q: With `O=C(Nc1ncc(CN2CCOCC2)s1)N1CCC(=Cc2cc(F)ccc2F)CC1` [Example 84, 4-(2,5-difluorobenzylidene)-N-(5-(morpholinomethyl)thiazol-2-yl)piperidine-1-carboxamide] as the molecule, how does the inhibition at 0.1 µM read?
A: The inhibition at 0.1 µM was 78.5%.

Q: With `O=C(Nc1cnc2ccccc2c1)N1CCC(=Cc2ccccn2)CC1` [Example 85, 4-(pyridin-2-ylmethylene)-N-(quinolin-3-yl)piperidine-1-carboxamide] as the molecule, how does the inhibition at 0.1 µM read?
A: Its inhibition at 0.1 µM is 35%.
